Consider one compound from BindingDB's records for doi:10.1016/s0960-894x(00)00662-4 (Dupont Pharmaceuticals, 2001).

This assay in a line: Compound was evaluated for its ability to inhibit the NNRTI HIV-1 enzyme by 50% using enzyme assay.

A word on the IC50: it is the concentration needed to halve the response being measured. Read a low IC50 as inhibition by little substance. In the case of `O=C1Nc2ccc(Cl)cc2[C@@](C#CC2CC2)(C(F)(F)F)N1`, it took 31 nM to reach half-maximal inhibition (IC50).
